# Measured values reported in patent US8501770B2 (ArQule, Inc., priority 2009, dated 2013).
# Biological target: Full-length inactive AKT1 (Homo sapiens, UniProt P31749)
# Experiment: Inactive Akt Alpha Screen Assay
# Format: biochemical
# Conditions: AlphaScreen assay (values not marked with *); read-out: Akt1 IC50, (AlphaScreen) (μM) (or if marked with “*” HTRF assay)
# Outline: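 AlphaScreen read-out (excitation 640 nm, emission 570 nm) after 90 min incubation at room temperature in the dark. Signal comes from crosstide phosphorylation by AKT1, which was activated by added PDK1, MAPKAPK2, ATP and lipid vesicles, captured via phospho-AKT substrate antibody and streptavidin beads.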
# Chain of Full-length inactive AKT1 (P31749 whole entry): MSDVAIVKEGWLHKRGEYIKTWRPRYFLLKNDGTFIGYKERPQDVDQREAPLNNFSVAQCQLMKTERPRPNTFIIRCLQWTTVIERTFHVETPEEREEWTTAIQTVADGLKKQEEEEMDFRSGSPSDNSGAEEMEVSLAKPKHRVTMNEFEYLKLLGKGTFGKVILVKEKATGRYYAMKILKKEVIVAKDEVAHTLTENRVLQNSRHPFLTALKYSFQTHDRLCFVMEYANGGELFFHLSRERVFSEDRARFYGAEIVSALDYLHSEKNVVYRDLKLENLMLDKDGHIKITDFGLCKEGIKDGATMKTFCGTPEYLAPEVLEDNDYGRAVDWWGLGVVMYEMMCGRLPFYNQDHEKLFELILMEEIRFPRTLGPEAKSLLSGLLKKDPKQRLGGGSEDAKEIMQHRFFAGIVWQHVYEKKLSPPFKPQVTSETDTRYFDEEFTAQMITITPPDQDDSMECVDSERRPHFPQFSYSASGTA
row,Structure (SMILES),IC50 [µM]
1,"CNC(=O)c1ccc(-c2ccc3nc(-c4cccnc4N)n(-c4ccc(C5(N)CCC5)cc4)c3n2)cc1F [Example 450, 4-{3-[4-(1-aminocyclobutyl)phenyl]-2-(2-aminopyridin-3-yl)-3H-imidazo[4,5-b]pyridin-5-yl}-2-fluoro-N-methylbenzamide]",0.0072
2,"CN1CCOc2cc(-c3ccc4nc(-c5cccnc5N)n(-c5ccc(C6(N)CCC6)cc5)c4n3)ccc21 [Example 433, 3-{3-[4-(1-aminocyclobutyl)phenyl]-5-(4-methyl-3,4-dihydro-2H-1,4-benzoxazin-7-yl)-3H-imidazo[4,5-b]pyridin-2-yl}pyridin-2-amine]",0.0018
3,"Nc1ncccc1-c1nc2ccc(-c3cccc(N4CCCCCC4)c3)nc2n1-c1ccc(C2(N)CCC2)cc1 [Example 458, 3-{3-[4-(1-aminocyclobutyl)phenyl]-5-(3-azepan-1-ylphenyl)-3H-imidazo[4,5-b]pyridin-2-yl}pyridin-2-amine]",0.012
4,"Nc1ncccc1-c1nc2ccc(-c3cccc(N4CCCOCC4)c3)nc2n1-c1ccc(C2(N)CCC2)cc1 [Example 459, 3-{3-[4-(1-aminocyclobutyl)phenyl]-5-[3-(1,4-oxazepan-4-yl)phenyl]-3H-imidazo[4,5-b]pyridin-2-yl}pyridin-2-amine]",0.0077

# Same assay, conditions: values not marked with "*": AlphaScreen assay; read-out: Akt1 IC50, (AlphaScreen)
row,Structure (SMILES),IC50 [µM]
1,Nc1ncccc1-c1nc2cccnc2n1-c1ccc(CNC(=O)c2nccc3ccccc23)cc1 [Example 20],0.354
2,COc1cccc(C(=O)NCc2ccc(-n3c(-c4cccnc4N)nc4cccnc43)cc2)c1 [Example 77],0.417
3,Nc1ncccc1-c1nc2cccnc2n1-c1ccc(CNC(=O)c2ccc(OC(F)(F)F)cc2)cc1 [Example 47],0.378
4,Nc1ncccc1-c1nc2cccnc2n1-c1ccc(CNC(=O)c2ccc(C(F)(F)F)cc2)cc1 [Example 63],0.79
5,"COc1cccc(S(=O)(=O)NCc2ccc(-n3c(-c4cccnc4N)nc4cc(Br)cnc43)cc2)c1 [Example 149, N-{4-[2-(2-aminopyridin-3-yl)-6-bromo-3H-imidazo[4,5-b]pyridin-3-yl]benzyl}-3-methoxybenzenesulfonamide]",0.26

# Same assay, conditions: values not marked with "*"; read-out: Akt1 IC50, (AlphaScreen)
row,Structure (SMILES),IC50 [µM]
1,"Cc1cnc2c(c1)nc(-c1cccnc1N)n2-c1ccc(CNC(=O)Cc2ccccc2)cc1 [Example 219, N-(4-(2-(2-aminopyridin-3-yl)-6-methyl-3H-imidazo[4,5-b]pyridin-3-yl)benzyl)-2-phenylacetamide]",0.23
2,"Nc1ncccc1-c1nc2cc(C(F)(F)F)cnc2n1-c1ccc(CNC(=O)c2cccc(F)c2)cc1 [Example 188, N-{4-[2-(2-aminopyridin-3-yl)-6-(trifluoromethyl)-3H-imidazo[4,5-b]pyridin-3-yl]benzyl}-3-fluorobenzamide]",0.36
3,"CC(=O)Nc1ccc(NC(=O)Cc2ccc(-n3c(-c4cccnc4N)nc4cc(C)cnc43)cc2)cc1 [Example 193, N-(4-acetamidophenyl)-2-(4-(2-(2-aminopyridin-3-yl)-6-methyl-3H-imidazo[4,5-b]pyridin-3-yl)phenyl)acetamide]",0.062
4,"Cc1cnc2c(c1)nc(-c1cccnc1N)n2-c1ccc(CNC(=O)c2ccccc2Cl)cc1 [Example 218, N-(4-(2-(2-aminopyridin-3-yl)-6-methyl-3H-imidazo[4,5-b]pyridin-3-yl)benzyl)-2-chlorobenzamide]",0.063
5,"Cc1ccc2nc(-c3cccnc3N)n(-c3ccc(CNC(=O)c4ccc(C(C)C)cc4)cc3)c2n1 [Example 245, N-(4-(2-(2-aminopyridin-3-yl)-5-methyl-3H-imidazo[4,5-b]pyridin-3-yl)benzyl)-4-isopropylbenzamide]",0.014
6,"NC(=O)c1ccc(-c2ccc3nc(-c4cccnc4N)n(-c4ccc(C5(N)CCC5)cc4)c3n2)cc1 [Example 387, 4-(3-(4-(1-aminocyclobutyl)phenyl)-2-(2-aminopyridin-3-yl)-3H-imidazo[4,5-b]pyridin-5-yl)benzamide]",0.0087
7,"Nc1ncccc1-c1nc2ccc(-c3ccc4cc[nH]c4c3)nc2n1-c1ccc(CNC(=O)c2cccc(F)c2)cc1 [Example 331, N-(4-(2-(2-aminopyridin-3-yl)-5-(1H-indol-6-yl)-3H-imidazo[4,5-b]pyridin-3-yl)benzyl)-3-fluorobenzamide]",0.42
8,"Cc1cnc2c(c1)nc(-c1cccnc1N)n2-c1ccc(CNC(=O)c2ccc3nc(C)ccc3c2)cc1 [Example 231, N-(4-(2-(2-aminopyridin-3-yl)-6-methyl-3H-imidazo[4,5-b]pyridin-3-yl)benzyl)-2-methylquinoline-6-carboxamide]",0.02
9,"CC(=O)Nc1ccc(-c2ccc3nc(-c4cccnc4N)n(-c4ccc(CNC(=O)c5cccc(F)c5)cc4)c3n2)cc1 [Example 291, N-(4-(5-(4-acetamidophenyl)-2-(2-amino-pyridin-3-yl)-3H-imidazo[4,5-b]pyridin-3-yl)benzyl)-3-fluorobenzamide]",0.056
10,"Nc1ncccc1-c1nc2ccc(-c3cccc(C(=O)O)c3)nc2n1-c1ccc(C2(N)CCC2)cc1 [Example 376, 3-(3-(4-(1-aminocyclobutyl)phenyl)-2-(2-3aminopyridin-3-yl)-H-imidazo[4,5-b]pyridin-5-yl)benzoic acid]",0.0038
11,"Cc1cc2nc(-c3cccnc3N)n(-c3ccc(CNC(=O)c4cccc(F)c4)cc3)c2nc1C [Example 321, N-(4-(2-(2-aminopyridin-3-yl)-5,6-dimethyl-3H-imidazo[4,5-b]pyridin-3-yl)benzyl)-3-fluorobenzamide]",0.076
12,"CN(C)Cc1cccc(-c2ccc3nc(-c4cccnc4N)n(-c4ccc(C5(N)CCC5)cc4)c3n2)c1 [Example 398, 3-(3-(4-(1-aminocyclobutyl)phenyl)-5-(3-((dimethylamino)methyl)phenyl)-3H-imidazo[4,5-b]pyridin-2-yl)pyridin-2-amine]",0.0064
13,"Nc1ncccc1-c1nc2ccc(-c3cc4ccccc4o3)nc2n1-c1ccc(C2(N)CCC2)cc1 [Example 423, 3-{3-[4-(1-aminocyclobutyl)phenyl]-5-(1-benzofuran-2-yl)-3H-imidazo[4,5-b]pyridin-2-yl}pyridin-2-amine]",0.0066
14,"CC(=O)Nc1cccc(C(=O)NCc2ccc(-n3c(-c4cccnc4N)nc4ccc(C)nc43)cc2)c1 [Example 248, 3-acetamido-N-(4-(2-(2-aminopyridin-3-yl)-5-methyl-3H-imidazo[4,5-b]pyridin-3-yl)benzyl)benzamide]",0.028
15,"Nc1ncccc1-c1nc2ccc(-c3cccnc3)nc2n1-c1ccc(CC(=O)Nc2ccccc2)cc1 [Example 257, 2-(4-(2-(2-aminopyridin-3-yl)-5-(pyridin-3-yl)-3H-imidazo[4,5-b]pyridin-3-yl)phenyl)-N-phenylacetamide]",0.046
16,"COc1cc(-c2ccc3nc(-c4cccnc4N)n(-c4ccc(C5(N)CCC5)cc4)c3n2)ccc1O [Example 419, 4-{3-[4-(1-aminocyclobutyl)phenyl]-2-(2-aminopyridin-3-yl)-3H-imidazo[4,5-b]pyridin-5-yl}-2-methoxyphenol]",0.0027
17,"Nc1ncccc1-c1nc2ccc(-c3cc[nH]c3)nc2n1-c1ccc(CNC(=O)c2cccc(F)c2)cc1 [Example 309, N-(4-(2-(2-aminopyridin-3-yl)-5-(1H-pyrrol-3-yl)-3H-imidazo[4,5-b]pyridin-3-yl)benzyl)-3-fluorobenzamide]",0.023
18,"Cc1ccc2cc(NC(=O)c3ccc(-n4c(-c5cccnc5N)nc5cccnc54)cc3)ccc2n1 [Example 180, 4-[2-(2-aminopyridin-3-yl)-3H-imidazo[4,5-b]pyridin-3-yl]-N-(2-methylquinolin-6-yl)benzamide]",0.59
